What was measured:
Test in all cases: Bliss excess, mean over the matrix (fraction); higher = more synergy
[1] = system: NCI-H1299 (Non-Small Cell Lung Carcinoma)
Summary of the method: (§1)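 After 24 hours at 37°C and 5% CO2 in 1536-well plates, cells in DMEM/F12 or RPMI plus 10% FBS received two-drug dose matrices for 72 hours. Viability came from CellTiter-Glo 2.0 luminescence and was scaled as inhibition, anchored at 0 by vehicle wells and at 1 by blank wells. Combination Emax is taken as the second-highest inhibition in the matrix, and Bliss excess as the observed combination effect less EA + EB − EA·EB, with EA and EB the single-agent effects.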

[2] = system: EM-2 (Chronic Myelogenous Leukemia)
Summary of the method: as §1

[3] = system: SW756 (Cervical Carcinoma)
Summary of the method: as §1

[4] = system: COR-L95 (Small Cell Lung Carcinoma)
Summary of the method: as §1

[5] = system: HPAC (Pancreatic Carcinoma)
Summary of the method: as §1

[6] = system: J82 (Bladder Carcinoma)
Summary of the method: as §1

[7] = system: HT-29 (Colorectal Carcinoma)
Summary of the method: as §1

[8] = system: NALM-6 (B-Lymphoblastic Leukemia)
Summary of the method: as §1

[9] = system: SN12C (Kidney Carcinoma)
Summary of the method: as §1

[10] = system: DB (B-Cell Non-Hodgkin's Lymphoma)
Summary of the method: as §1

[11] = system: OCI-AML2 (Acute Myeloid Leukemia)
Summary of the method: as §1

[12] = system: SNU-C5 (Colorectal Carcinoma)
Summary of the method: as §1

[13] = system: IHH-4 (Thyroid Gland Carcinoma)
Summary of the method: as §1

[14] = system: LU-99A (Non-Small Cell Lung Carcinoma)
Summary of the method: as §1

[15] = system: KARPAS-620 (Plasma Cell Myeloma)
Summary of the method: as §1

[16] = system: U-266 (Plasma Cell Myeloma)
Summary of the method: as §1

[17] = system: 697 (B-Lymphoblastic Leukemia)
Summary of the method: as §1

[18] = system: CFPAC-1 (Pancreatic Carcinoma)
Summary of the method: as §1

[19] = system: C3A (Hepatocellular Carcinoma)
Summary of the method: as §1

[20] = system: SW1783 (Low Grade Glioma)
Summary of the method: as §1

Compound	Bliss excess [1]	Bliss excess [2]	Bliss excess [3]	Bliss excess [4]	Bliss excess [5]	Bliss excess [6]	Bliss excess [7]	Bliss excess [8]	Bliss excess [9]	Bliss excess [10]	Bliss excess [11]	Bliss excess [12]	Bliss excess [13]	Bliss excess [14]	Bliss excess [15]	Bliss excess [16]	Bliss excess [17]	Bliss excess [18]	Bliss excess [19]	Bliss excess [20]
Cc1c2c(nn1C)CSCc1cc(n(C)n1)CSc1cc(c3ccccc3c1)OCCCc1c(C(=O)O)n(C)c3c-2c(Cl)ccc13 [AZD5991] + CN(C)CCCOc1ccc(-c2ccc3ncc4c(c3c2)n(C2CCOCC2)c(=O)n4C)cn1 [AZD0156] (first compound max 1 µM, 7x7, partner max 1 µM)	0.0163	-0.0436	-0.0015	-0.0328	0.0384	0.0127	0.0078	0.0032	-0.0161	-0.0093	-0.0647	0.0157	0.0541	-0.0175	0.02	0.0057	-0.0468	0.0066	-0.0266	-0.0074
CN(CCO)CC[C@H](CSc1ccccc1)Nc1ccc(S(=O)(=O)NC(=O)c2ccc(N3CCC([C@@H](O)c4ccccc4-c4ccc(Cl)cc4)CC3)cc2)cc1S(=O)(=O)C(F)(F)F [AZD4320] + C1CN(CCC1(C(=O)N[C@@H](CCO)C2=CC=C(C=C2)Cl)N)C3=NC=NC4=C3C=CN4 [Capivasertib] (first compound max 1 µM, 7x7, partner max 3 µM)	-0.029	0.0261	-0.0506	-0.0203	-0.0571	-0.031	-0.0331	0.0091	-0.0636	-0.0196	-0.0333	-0.067	-0.0253	-0.0693	0.0032	-0.0061	-0.0179	-0.0527	-0.0904	-0.119
CN(CCO)CC[C@H](CSc1ccccc1)Nc1ccc(S(=O)(=O)NC(=O)c2ccc(N3CCC([C@@H](O)c4ccccc4-c4ccc(Cl)cc4)CC3)cc2)cc1S(=O)(=O)C(F)(F)F [AZD4320] + Cn1cnc2c(F)c(Nc3ccc(Br)cc3Cl)c(C(=O)NOCCO)cc21 [Selumetinib] (first compound max 1 µM, 7x7, partner max 3 µM)	0.0505	0.007	0.0022	-0.0067	0.0371	-0.0144	0.02	0.0153	-0.0015	-0.0482	0.0207	0.0837	0.0185	0.0878	0.0613	0.13	0.0943	0.0453	0.141	-0.0419
C=CCn1c(=O)c2cnc(Nc3ccc(N4CCN(C)CC4)cc3)nc2n1-c1cccc(C(C)(C)O)n1 [AZD1775] + O=C(c1cc(Cc2n[nH]c(=O)c3ccccc23)ccc1F)N1CCN(C(=O)C2CC2)CC1 [Olaparib] (first compound max 1 µM, partner max 10 µM)	-0.0048	-0.0243	-0.0416	-0.101	0.0077	-0.025	-0.0368	-0.0045	-0.0136	-0.0788	0.0249	-0.0485	0.0194	-0.0603	-0.0324	-0.0775	0.0782	-0.0585	-0.0179	-0.0028
Cn1cnc2c(F)c(Nc3ccc(Br)cc3Cl)c(C(=O)NOCCO)cc21 [Selumetinib] + C[C@@H]1COCCN1C2=NC(=NC(=C2)C3(CC3)[S@](=N)(=O)C)C4=C5C=CNC5=NC=C4 [AZD6738] (first compound max 10 µM, 7x7, partner max 10 µM)	0.0454	0.0264	0.0323	-0.0778	-0.0015	0.0262	-0.019	-0.0063	-0.0169	-0.0353	0.0141	0.0751	0.0224	0.0565	0.0471	-0.0303	0.0344	-0.0112	0.0471	-0.103
NC1(C(=O)N[C@@H](CCO)c2ccc(Cl)cc2)CCN(c2ncnc3[nH]ccc23)CC1 [Capivasertib] + CC(C)n1c(=O)n(C)c2cnc3cc(F)c(-c4ccc(OCCCN5CCCCC5)nc4)cc3c21 [AZD1390] (first compound max 10 µM, 7x7, partner max 0.3 µM)	-0.0362	-0.0446	-0.0647	-0.0425	-0.0699	-0.0659	-0.0376	-0.0863	-0.0454	-0.0494	-0.0448	-0.052	-0.0074	-0.0962	-0.0273	-0.101	-0.0197	-0.0828	-0.0724	-0.0625
CN(CCO)CC[C@H](CSc1ccccc1)Nc1ccc(S(=O)(=O)NC(=O)c2ccc(N3CCC([C@@H](O)c4ccccc4-c4ccc(Cl)cc4)CC3)cc2)cc1S(=O)(=O)C(F)(F)F [AZD4320] + C[C@@H](Nc1cc(F)cc(F)c1)c1cc(C(=O)N(C)C)cc2c(=O)cc(N3CCOCC3)oc12 [AZD8186] (first compound max 1 µM, 7x7, partner max 3 µM)	0.0118	0.0055	-0.0213	0.0256	-0.0014	-0.0061	0.0097	0.0514	-0.0193	-0.0096	0.0556	-0.0704	0.0438	-0.0296	0.0147	-0.0077	-0.003	0.0585	0.0183	-0.0348
Cc1c2c(nn1C)CSCc1cc(n(C)n1)CSc1cc(c3ccccc3c1)OCCCc1c(C(=O)O)n(C)c3c-2c(Cl)ccc13 [AZD5991] + C[C@@H](Nc1cc(F)cc(F)c1)c1cc(C(=O)N(C)C)cc2c(=O)cc(N3CCOCC3)oc12 [AZD8186] (first compound max 1 µM, 7x7, partner max 3 µM)	-0.0181	-0.0528	0.0162	-0.0012	-0.0297	0.0359	-0.012	0.0341	-0.0725	-0.0287	-0.0721	0.0464	0.0184	-0.0534	-0.0113	-0.0496	-0.0743	-0.0077	-0.0375	0.0037
CCN(CCO)CCCOc1ccc2c(Nc3cc(CC(=O)Nc4cccc(F)c4)[nH]n3)ncnc2c1 [AZD2811] + C[C@@H]1COCCN1C2=NC(=NC(=C2)C3(CC3)[S@](=N)(=O)C)C4=C5C=CNC5=NC=C4 [AZD6738] (first compound max 1 µM, 7x7, partner max 10 µM)	-0.0808	-0.0433	-0.0095	-0.0658	-0.0244	-0.0259	-0.0459	-0.0435	-0.0641	-0.0302	-0.0145	-0.0418	-0.0583	-0.0732	-0.0121	-0.0532	0.0013	-0.0932	-0.0117	-0.0501
COc1cccc(OCCCN)c1-c1cc(Nc2cnc(C#N)cn2)n[nH]1 [Prexasertib] + O=C(c1cc(Cc2n[nH]c(=O)c3ccccc23)ccc1F)N1CCN(C(=O)C2CC2)CC1 [Olaparib] (first compound max 1 µM, 7x7, partner max 10 µM)	-0.0694	0.0164	0.0038	-0.121	-0.149	0.033	-0.0732	-0.0087	-0.0425	-0.0327	-0.0242	-0.109	-0.0827	-0.0849	-0.046	-0.0895	0.0371	-0.0834	-0.0461	-0.0344
CS(=O)(=O)CCNCc1ccc(-c2ccc3ncnc(Nc4ccc(OCc5cccc(F)c5)c(Cl)c4)c3c2)o1 [Lapatinib] + C[C@@H](Oc1cc(-c2cnn(C3CCNCC3)c2)cnc1N)c1c(Cl)ccc(F)c1Cl [Crizotinib] (first compound max 10 µM, 7x7, partner max 10 µM)	-0.0677	-0.0062	-0.0138	-0.0529	0.0358	-0.0317	-0.0475	-0.0612	-0.017	-0.148	-0.0813	-0.0301	-0.0634	-0.0205	-0.0459	-0.0574	0.0166	-0.077	-0.0963	-0.0306
COc1cccc(OCCCN)c1-c1cc(Nc2cnc(C#N)cn2)n[nH]1 [Prexasertib] + CCc1c2c(nc3ccc(O)cc13)-c1cc3c(c(=O)n1C2)COC(=O)[C@]3(O)CC [SN-38] (first compound max 1 µM, 7x7, partner max 0.3 µM)	-0.0161	-0.0352	-0.0542	-0.121	0.0446	-0.0177	-0.0022	-0.0555	-0.0237	-0.0299	-0.0094	-0.0375	-0.0653	-0.0593	0.0396	-0.0412	0.0017	-0.107	-0.112	-0.0739
Cn1cnc2c(F)c(Nc3ccc(Br)cc3Cl)c(C(=O)NOCCO)cc21 [Selumetinib] + C=CCn1c(=O)c2cnc(Nc3ccc(N4CCN(C)CC4)cc3)nc2n1-c1cccc(C(C)(C)O)n1 [AZD1775] (first compound max 10 µM, partner max 1 µM)	-0.02	-0.0618	-0.0882	-0.0464	-0.0467	-0.0614	-0.0432	0.0755	-0.0228	-0.193	0.0274	0.0241	-0.0083	-0.0624	0.0719	0.0598	-0.0131	-0.0439	-0.022	-0.0939
Cc1cc2ncnn2cc1Nc1ncc2c(n1)n(C1CCOCC1)c(=O)n2C [AZD7648] + C=CCn1c(=O)c2cnc(Nc3ccc(N4CCN(C)CC4)cc3)nc2n1-c1cccc(C(C)(C)O)n1 [AZD1775] (first compound max 10 µM, partner max 1 µM)	-0.0314	-0.015	-0.0211	-0.0543	0.0067	-0.008	-0.0091	-0.041	-0.0188	-0.0984	-0.0039	0.0457	0.0233	-0.0262	-0.0493	-0.0457	0	0.0525	0.0187	0.0078
